How the values were obtained:
[1] = molecular target: T1, PCSK9 (Homo sapiens, UniProt Q8NBP7); assay: Fluorescence polarization competition binding assay (probe: compound of Example 57); settings: 2 μM PCSK9, 50 nM compound of Example 57 as probe, overnight incubation; read-out: FP IC
Method: Relative compound affinities were determined using a competition binding assay with a fluorescence polarization format. Solution (49 μL) containing 2 μM PCSK9 and 50 nM compound of Example 57 in 20 mM HEPES (pH 7.5)/150 mM NaCl/1 mM CaCl2/0.005% P-20 was dispensed to wells of a 384-well black non-binding microplate before the addition of 1 μL of test compound or DMSO. After mixing, the plate was centrifuged and sealed for overnight incubation in the dark. The anisotropy signal was read using a fluorescence polarization protocol on a Perkin-Elmer Envision plate reader. The % inhibition was determined relative to the window defined by the DMSO control wells and wells containing 50 nM probe in the absence of PCSK9.

[2] = molecular target: T1, PCSK9; assay: Differential scanning calorimetry (DSC) assay, direct binding / thermal stabilization of PCSK9; settings: Tm(with compound)−Tm(no compound); 2 μM PCSK9, 300 μM test compound
Method: Differential scanning calorimetry (DSC) was used as a biophysical method to confirm direct binding to PCSK9. A solution containing 2 μM PCSK9 with or without 300 μM test compound in 25 mM HEPES (pH 7.5)/150 mM NaCl/1 mM CaCl2/3.75% DMSO was transferred to the sample cell of the DSC instrument, while buffer alone was placed in the reference cell. Both cells were heated at a constant rate (200° C./hr) from 20-80° C. while recording the excess heat capacity of the sample cell relative to the reference cell. Each thermogram was analyzed to provide the melting temperature (Tm) of the protein.
The higher the temperature shift generally, the higher the affinity.

T1 sequence (Q8NBP7 153-692): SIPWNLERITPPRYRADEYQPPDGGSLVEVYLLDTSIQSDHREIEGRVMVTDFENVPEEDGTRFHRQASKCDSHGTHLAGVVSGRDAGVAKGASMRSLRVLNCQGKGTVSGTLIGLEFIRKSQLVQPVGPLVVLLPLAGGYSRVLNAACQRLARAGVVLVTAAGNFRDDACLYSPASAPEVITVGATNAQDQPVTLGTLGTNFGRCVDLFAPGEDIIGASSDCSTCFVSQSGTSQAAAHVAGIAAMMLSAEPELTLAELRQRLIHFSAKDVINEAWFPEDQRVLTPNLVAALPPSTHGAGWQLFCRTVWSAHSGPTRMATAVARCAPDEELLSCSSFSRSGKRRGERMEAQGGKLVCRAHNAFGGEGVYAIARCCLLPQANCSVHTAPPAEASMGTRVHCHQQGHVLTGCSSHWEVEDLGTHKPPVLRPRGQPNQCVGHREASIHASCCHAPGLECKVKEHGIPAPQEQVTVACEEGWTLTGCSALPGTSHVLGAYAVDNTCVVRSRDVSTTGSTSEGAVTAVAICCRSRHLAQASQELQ

| SMILES | IC50 [1] | ΔTm at 300 µM [2] | DSC ΔTm [2] |
| --- | --- | --- | --- |
| COc1cccc(NC(=O)C[C@@]2(C)NCCc3cc(OC)c(Oc4cccc(F)c4)cc32)c1 [Example 11, (R)-2-(7-(3-fluorophenoxy)-6-methoxy-1-methyl-1,2,3,4-tetrahydroisoquinolin-1-yl)-N-(3-methoxyphenyl)acetamide] | 756 nM | 5.69 °C |  |
| COC(=O)c1ccc(-c2ccc(Oc3cc4c(cc3OCC3CCCCO3)CCN[C@]4(C)CC(=O)Nc3cccc(OC)c3)cc2F)cc1 (stereo partly drawn) [Example 89, methyl 2′-fluoro-4′-(((1R)-1-(2-((3-methoxyphenyl)amino)-2-oxoethyl)-1-methyl-6-((tetrahydro-2H-pyran-2-yl)methoxy)-1,2,3,4-tetrahydroisoquinolin-7-yl)oxy)-[1,1′-biphenyl]-4-carboxylate] | 2.76 nM | 5.98 °C |  |
| COC(=O)c1ccc(Oc2cc3c(cc2OCCOCCNC(=O)CCC2=[N+]4C(=Cc5c(C)cc(C)n5[B-]4(F)F)C=C2)CCN[C@]3(C)CC(=O)Nc2nccs2)cc1F [Example 61, methyl (R)-4-((6-(2-(2-(3-(5,5-difluoro-7,9-dimethyl-5H-4l4,5l4-dipyrrolo[1,2-c:2′,1′-f][1,3,2]diazaborinin-3-yl)propanamido)ethoxy)ethoxy)-1-methyl-1-(2-oxo-2-(thiazol-2-ylamino)ethyl)-1,2,3,4-tetrahydroisoquinolin-7-yl)oxy)-2-fluorobenzoate] |  | 2.87 °C |  |
| COc1cccc(NC(=O)C[C@@]2(C)NCCc3cc(OCC4CCCCO4)c(Oc4ccc(-c5ccc(C(=O)O)cc5)c(F)c4)cc32)c1 (some centres unmarked) [Example 85] | 170 nM | 9.62 °C |  |
| COc1cc2c(cc1Oc1ccc3cnccc3c1)[C@@](C)(CC(=O)Nc1nccs1)NCC2 [Example 6, (R)-2-(7-(isoquinolin-6-yloxy)-6-methoxy-1-methyl-1,2,3,4-tetrahydroisoquinolin-1-yl)-N-(thiazol-2-yl)acetamide] | 648 nM | 5.78 °C |  |
| CC1=CC(C)=[N+]2C1=Cc1ccc(CCC(=O)NCCOCCOc3cc4c(cc3Oc3ccc(C(=O)O)c(F)c3)[C@@](C)(CC(=O)Nc3nccs3)NCC4)n1[B-]2(F)F [Example 57] |  |  | 6.15 °C |
| COC(=O)CCc1ccc(-c2ccc(Oc3cc4c(cc3OC)CCN[C@]4(C)CC(=O)Nc3nccs3)cn2)cc1 [Example 16, methyl (R)-3-(4-(5-((6-methoxy-1-methyl-1-(2-oxo-2-(thiazol-2-ylamino)ethyl)-1,2,3,4-tetrahydroisoquinolin-7-yl)oxy)pyridin-2-yl)phenyl)propanoate] | 4.15 nM | 3.57 °C |  |
| CC(C)(C)c1cc(NC(=O)c2ccc(Oc3cc4c(cc3OCC3CCCCO3)CCN[C@]4(C)CC(=O)Nc3nccs3)cc2F)[nH]n1 (stereo partly drawn) [Example 76, N-(3-(tert-butyl)-1H-pyrazol-5-yl)-2-fluoro-4-(((1R)-1-methyl-1-(2-oxo-2-(thiazol-2-ylamino)ethyl)-6-((tetrahydro-2H-pyran-2-yl)methoxy)-1,2,3,4-tetrahydroisoquinolin-7-yl)oxy)benzamide] | 535 nM | 7.92 °C |  |
| COc1cc2c3cc1Oc1ccc(C(=O)O)c(c1)OCCCCCCc1csc(n1)NC(=O)C[C@@]3(C)NCC2 [Example 1, (Z)-36-methoxy-31-methyl-5-oxo-31,32,33,34-tetrahydro-2,14-dioxa-6-aza-7(2,4)-thiazola-3(7,1)-isoquinolina-1(1,3)-benzenacyclotetradecaphane-14-carboxylic acid] | 3670 nM | 4.29 °C |  |
| C[C@]1(CC(=O)Nc2nccs2)NCCc2cc(OCC3CCCCO3)c(Oc3cccc(F)c3)cc21 (stereo partly drawn) [Example 79, 2-((1R)-7-(3-fluorophenoxy)-1-methyl-6-((tetrahydro-2H-pyran-2-yl)methoxy)-1,2,3,4-tetrahydroisoquinolin-1-yl)-N-(thiazol-2-yl)acetamide] | 823 nM | 6.76 °C |  |
| COC(=O)c1cc(-c2cc3c(cc2OCC2CCCCO2)CCNC3(C)CC(=O)Nc2nccs2)ccc1F (centres unmarked) [Example 111, methyl 2-fluoro-5-(1-methyl-1-(2-oxo-2-(thiazol-2-ylamino)ethyl)-6-((tetrahydro-2H-pyran-2-yl)methoxy)-1,2,3,4-tetrahydroisoquinolin-7-yl)benzoate] | 1.55 nM | 6.27 °C |  |
| Cc1cc(C)n2c1C=C1C=CC(CCC(=O)NCCOCCOc3cc4c(cc3Oc3ccc(C(=O)O)cc3)[C@@](C)(CC(=O)Nc3nccs3)NCC4)=[N+]1[B-]2(F)F [Example 59, (R)-4-((6-(2-(2-(3-(5,5-difluoro-7,9-dimethyl-5H-4l4,5l4-dipyrrolo[1,2-c:2′,1′-f][1,3,2]diazaborinin-3-yl)propanamido)ethoxy)ethoxy)-1-methyl-1-(2-oxo-2-(thiazol-2-ylamino)ethyl)-1,2,3,4-tetrahydroisoquinolin-7-yl)oxy)benzoic acid] |  | 5.15 °C |  |
| COc1cc2c(cc1Oc1ccc(-c3ccc(C(=O)O)cc3)nc1)[C@@](C)(CC(=O)Nc1nccs1)NCC2 [Example 35, (R)-4-(5-((6-methoxy-1-methyl-1-(2-oxo-2-(thiazol-2-ylamino)ethyl)-1,2,3,4-tetrahydroisoquinolin-7-yl)oxy)pyridin-2-yl)benzoic acid] | 681 nM | 5.29 °C |  |
| C[C@]1(CC(=O)Nc2nccs2)NCCc2cc(OCC3CCCO3)c(Oc3cccc(F)c3)cc21 (stereo partly drawn) [Example 82, 2-((1R)-7-(3-fluorophenoxy)-1-methyl-6-((tetrahydrofuran-2-yl)methoxy)-1,2,3,4-tetrahydroisoquinolin-1-yl)-N-(thiazol-2-yl)acetamide] | 721 nM | 7.47 °C |  |
| COc1ccccc1C(=O)Nc1ccccc1-n1cc(C(=O)NCc2cn(CCOc3cc4c(cc3Oc3ccc(C(=O)O)c(F)c3)[C@@](C)(CC(=O)Nc3nccs3)NCC4)nn2)nc1C [Example 52, (R)-2-fluoro-4-((6-(2-(4-((1-(2-(2-methoxybenzamido)phenyl)-2-methyl-1H-imidazole-4-carboxamido)methyl)-1H-1,2,3-triazol-1-yl)ethoxy)-1-methyl-1-(2-oxo-2-(thiazol-2-ylamino)ethyl)-1,2,3,4-tetrahydroisoquinolin-7-yl)oxy)benzoic acid] | 778 nM | 5.58 °C |  |
| COCCOCc1cn(CCOc2cc3c(cc2Oc2ccc(C(=O)O)c(F)c2)[C@@](C)(CC(=O)Nc2nccs2)NCC3)nn1 [Example 41, (R)-2-fluoro-4-((6-(2-(4-((2-methoxyethoxy)methyl)-1H-1,2,3-triazol-1-yl)ethoxy)-1-methyl-1-(2-oxo-2-(thiazol-2-ylamino)ethyl)-1,2,3,4-tetrahydroisoquinolin-7-yl)oxy)benzoic acid] | 354 nM | 7.18 °C |  |
| COC(=O)C1(c2ccc(-c3ccc(Oc4cc5c(cc4OC)CCN[C@]5(C)CC(=O)Nc4nccs4)cn3)cc2)CC1 [Example 15, methyl (R)-1-(4-(5-((6-methoxy-1-methyl-1-(2-oxo-2-(thiazol-2-ylamino)ethyl)-1,2,3,4-tetrahydroisoquinolin-7-yl)oxy)pyridin-2-yl)phenyl)cyclopropane-1-carboxylate] | 3.76 nM | 3.31 °C |  |
| COc1cc2c(cc1-c1ccc(F)c(C(=O)O)c1)[C@@](C)(CC(=O)Nc1nccs1)NCC2 [Example 112, (R)-2-fluoro-5-(6-methoxy-1-methyl-1-(2-oxo-2-(thiazol-2-ylamino)ethyl)-1,2,3,4-tetrahydroisoquinolin-7-yl)benzoic acid] |  | 6.8 °C |  |
| C[C@]1(CC(=O)Nc2nccs2)NCCc2cc(OCCOCCNC(=O)CCCC[C@@H]3SC[C@@H]4NC(=O)N[C@@H]43)c(Oc3ccc(C(=O)O)cc3)cc21 [Example 60, 4-(((R)-1-methyl-1-(2-oxo-2-(thiazol-2-ylamino)ethyl)-6-(2-(2-(5-((3aS,4S,6aR)-2-oxohexahydro-1H-thieno[3,4-d]imidazol-4-yl)pentanamido)ethoxy)ethoxy)-1,2,3,4-tetrahydroisoquinolin-7-yl)oxy)benzoic acid] |  | 6.42 °C |  |
| Cc1ncsc1-c1ccc(CNC(=O)[C@@H]2C[C@@H](O)CN2C(=O)[C@@H](NC(=O)COCC(=O)NCCOCCOc2cc3c(cc2Oc2ccc(-c4ccc(C(=O)O)cc4)c(F)c2)[C@@](C)(CC(=O)Nc2nccs2)NCC3)C(C)(C)C)cc1 [Example 105, 2′-fluoro-4′-(((R)-6-(((S)-13-((2S,4R)-4-hydroxy-2-((4-(4-methylthiazol-5-yl)benzyl)carbamoyl)pyrrolidine-1-carbonyl)-14,14-dimethyl-7,11-dioxo-3,9-dioxa-6,12-diazapentadecyl)oxy)-1-methyl-1-(2-oxo-2-(thiazol-2-ylamino)ethyl)-1,2,3,4-tetrahydroisoquinolin-7-yl)oxy)-[1,1′-biphenyl]-4-carboxylic acid] | 225 nM |  |  |
| C[C@]1(CC(=O)Nc2nccs2)NCCc2cc(OCCOCCOCCNC(=O)CCCC[C@@H]3SC[C@@H]4NC(=O)N[C@@H]43)c(Oc3ccc(C(=O)O)cc3)cc21 [Example 58, 4-(((R)-1-methyl-1-(2-oxo-2-(thiazol-2-ylamino)ethyl)-6-(2-(2-(2-(5-((3aS,4S,6aR)-2-oxohexahydro-1H-thieno[3,4-d]imidazol-4-yl)pentanamido)ethoxy)ethoxy)ethoxy)-1,2,3,4-tetrahydroisoquinolin-7-yl)oxy)benzoic acid] |  | 5.88 °C |  |

From US11008313B2, “Substituted 1-methyl-1,2,3,4-tetrahydroisoquinoline molecules as PCSK9 allosteric binders” (Merck Sharp & Dohme Corp., priority 2016, dated 2021)
